“Also recorded” adds a separate entry of the source.
What was measured:
[1] = molecular target: T1, c-Met kinase (Homo sapiens, UniProt P08581); design: method as in PMID 28384549; conditions: previous research; cited from earlier work
[2] = tested on: A549 cells; assay: MTT cytotoxicity assay, A549; assay type: cell-based; conditions: Homo sapiens, 72 h
Method: (§1) The results expressed as IC50 values were summarized in Table 1, and the values were the average of at least two independent experiments.
(§2) The cancer cell lines were cultured in minimum essential medium (MEM) supplement with 10% fetal bovine serum (FBS). […] The test compounds at indicated final concentrations were added to the culture medium and the cell cultures were continued for 72 h. […] All of the compounds were tested two times in each of the cell lines. The results expressed as inhibition rates or IC50 (half-maximal inhibitory concentration) were the averages of two determinations and calculated by using the Bacus Laboratories Incorporated Slide Scanner (Bliss) software (the Bacus Laboratories Inc. Slide Scanner (BLISS) system, Lombard, IL, USA)..

[3] = tested on: HepG2 cells; assay: MTT cytotoxicity assay, HepG2; assay type: cell-based; conditions: Homo sapiens, 72 h
Method: as §1
(§3) The cancer cell lines were cultured in minimum essential medium (MEM) supplement with 10% fetal bovine serum (FBS). Approximately 4 × 10^3 cells, suspended in MEM medium, were plated onto each well of a 96-well plate and incubated in 5% CO2 at 37 °C for 24 h. The test compounds at indicated final concentrations were added to the culture medium and the cell cultures were continued for 72 h. Fresh MTT was added to each well at a terminal concentration of 5 μg/mL and incubated with cells at 37 °C for 4 h. The formazan crystals were dissolved in 100 μL DMSO each well, and the absorbency at 492 nm (for absorbance of MTT formazan) and 630 nm (for the reference wavelength) was measured with the ELISA reader. All of the compounds were tested two times in each of the cell lines. The results expressed as inhibition rates or IC50 (half-maximal inhibitory concentration) were the averages of two determinations and calculated by using the Bacus Laboratories Incorporated Slide Scanner (Bliss) software (the Bacus Laboratories Inc. Slide Scanner (BLISS) system, Lombard, IL, USA)..

[4] = tested on: MCF-7 cells; assay: MTT cytotoxicity assay, MCF-7; assay type: cell-based; conditions: Homo sapiens, MCF7, 72 h
Method: as §1, §2

[5] = tested on: A549, HepG2, MCF-7; assay: MTT cytotoxicity assay, range over the three cancer cell lines; assay type: cell-based; conditions: Homo sapiens; range over A549, HepG2 and MCF-7
Method: as §1, §3

[6] = molecular target: T1, c-Met kinase; assay: c-Met kinase inhibition assay (HTRF; mobility shift)
[7] = tested on: HepG2 cells; assay: Acridine orange (AO) single staining, nuclear morphology; assay type: cell-based, human; conditions: 0.01 μM, 12 h
Method: Potential compound 53 was selected for validation and evaluation of inhibition of cell proliferation and induction of apoptosis in HepG2 cells. […] Moreover, from the results of the inverted fluorescence microscopy, it can be observed that the cells in the control group (Figure 3a) were full and the edge was clear, which was added without nothing.
The cancer cell lines were cultured in minimum essential medium (MEM) supplement with 10% fetal bovine serum (FBS). Approximately 2 × 10^4 cells, suspended in MEM medium, were plated onto each well of a 24-well plate and incubated in 5% CO2 at 37 °C for 24 h. Then the medium was removed, and 1 mL drug-free medium and 1mL medium with the test compound 7c at indicated final concentrations were added to each well in control group and test group respectively and the cell cultures were continued for 12 h. While the medium was removed, AO-PBS buffer was added to each well at a terminal concentration of 10 µg/mL and stained in dark for 10 min. Each well was washed with PBS buffer three times and observed under a fluorescence microscope.
Figure 3 The cell morphology of HepG2 cells of the control and test groups. (a) HepG2 cells treated without any compounds; (b) HepG2 cells were treated with 0.01 µM for 12 h; Changes of nuclear morphology were determined by AO staining.

T1 sequence (P08581 25-1390): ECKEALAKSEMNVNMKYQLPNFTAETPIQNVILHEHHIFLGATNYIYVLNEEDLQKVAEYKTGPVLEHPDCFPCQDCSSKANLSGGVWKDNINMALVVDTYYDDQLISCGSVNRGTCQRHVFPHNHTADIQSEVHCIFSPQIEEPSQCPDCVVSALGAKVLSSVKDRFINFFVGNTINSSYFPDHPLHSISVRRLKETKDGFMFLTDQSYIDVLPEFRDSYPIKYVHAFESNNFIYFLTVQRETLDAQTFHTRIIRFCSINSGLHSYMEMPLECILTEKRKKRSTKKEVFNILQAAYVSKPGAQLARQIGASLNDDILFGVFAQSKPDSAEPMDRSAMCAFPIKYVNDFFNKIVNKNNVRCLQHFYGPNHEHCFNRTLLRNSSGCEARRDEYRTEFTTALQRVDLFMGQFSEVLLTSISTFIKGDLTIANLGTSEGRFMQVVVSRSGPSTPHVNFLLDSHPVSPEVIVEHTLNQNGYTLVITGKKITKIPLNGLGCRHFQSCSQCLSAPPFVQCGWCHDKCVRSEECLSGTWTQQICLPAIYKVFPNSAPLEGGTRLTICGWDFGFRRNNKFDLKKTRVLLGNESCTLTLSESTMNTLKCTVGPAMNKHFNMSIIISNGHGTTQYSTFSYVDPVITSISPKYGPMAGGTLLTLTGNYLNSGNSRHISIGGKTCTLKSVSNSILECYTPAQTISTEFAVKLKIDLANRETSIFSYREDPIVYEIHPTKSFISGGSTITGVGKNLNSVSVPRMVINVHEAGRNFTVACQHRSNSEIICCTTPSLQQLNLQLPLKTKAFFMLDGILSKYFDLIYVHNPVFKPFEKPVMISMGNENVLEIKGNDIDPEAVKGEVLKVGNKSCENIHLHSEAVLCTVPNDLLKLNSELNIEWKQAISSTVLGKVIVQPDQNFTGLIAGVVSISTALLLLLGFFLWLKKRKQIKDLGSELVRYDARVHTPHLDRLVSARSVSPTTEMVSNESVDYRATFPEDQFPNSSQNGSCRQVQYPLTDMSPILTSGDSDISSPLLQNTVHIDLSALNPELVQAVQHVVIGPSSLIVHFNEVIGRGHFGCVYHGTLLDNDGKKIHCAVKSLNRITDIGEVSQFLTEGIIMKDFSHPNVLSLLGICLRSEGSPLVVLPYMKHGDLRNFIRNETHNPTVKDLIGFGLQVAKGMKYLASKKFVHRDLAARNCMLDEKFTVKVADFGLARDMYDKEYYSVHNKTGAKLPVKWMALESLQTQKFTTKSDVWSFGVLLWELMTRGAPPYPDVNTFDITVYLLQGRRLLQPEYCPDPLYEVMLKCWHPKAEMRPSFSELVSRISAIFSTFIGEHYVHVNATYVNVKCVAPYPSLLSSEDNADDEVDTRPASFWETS

SMILES | enzyme activity IC50 values [1] | IC50 [2] [µM] | IC50 [3] [µM] | IC50 [4] [µM] | IC50 [5] [µM] | melting point [°C] | IC50 [6] [µM] | Inhibition of proliferation and induction of apoptosis (AO staining) [7]
Cc1cc(=O)n(-c2ccc(F)cc2)nc1C(=O)Nc1ccc(Oc2ccnc3[nH]ccc23)c(F)c1 [Compound 7] | in the nanomole level | – | – | – | – | – | – | –
COc1cc2c(Oc3ccc(NC(=O)c4nn(-c5ccccc5)ccc4=O)cc3F)ccnc2cc1OCCCN1CCCCC1 [Compound 37, N-(3-Fluoro-4-((6-methoxy-7-(3-(piperidin-1-yl)propoxy)quinolin-4-yl)oxy)phenyl)-4-oxo-1-phenyl-1,4-dihydropyridazine-3-carboxamide] | – | 0.06 ± 0.01 | 0.18 ± 0.01 | 0.03 ± 0.01 | 0.002 to 1.03 | 152.3 to 153.1 | 0.004 | –
COc1ccc(-n2ccc(=O)c(C(=O)Nc3ccc(Oc4ccnc5cc(OCCCN6CCC(C)CC6)c(OC)cc45)c(F)c3)n2)cc1 [Compound 41, N-(3-Fluoro-4-((6-methoxy-7-(3-(4-methylpiperidin-1-yl)propoxy)quinolin-4-yl)oxy)phenyl)-1-(4-methoxyphenyl)-4-oxo-1,4-dihydropyridazine-3-carboxamide] | – | 0.02 ± 0.01 | 0.008 ± 0.001 | 0.02 ± 0.01 | 0.002 to 1.03 | 145.1 to 146.3 | 0.0009 | –
COc1cc2c(Oc3ccc(NC(=O)c4nn(-c5ccc(F)c(Cl)c5)ccc4=O)cc3F)ccnc2cc1OCCCN1CCC(C)CC1 [Compound 42, 1-(3-Chloro-4-fluorophenyl)-N-(3-fluoro-4-((6-methoxy-7-(3-(4-methylpiperidin-1-yl)propoxy)quinolin-4-yl)oxy)phenyl)-4-oxo-1,4-dihydropyridazine-3-carboxamide] | – | 0.005 ± 0.001 | 1.03 ± 0.01 | 0.007 ± 0.001 | 0.002 to 1.03 | 112.5 to 113.7 | 0.0012 | –
COc1cc2c(Oc3ccc(NC(=O)c4nn(-c5ccc(Br)cc5F)ccc4=O)cc3F)ccnc2cc1OCCCN1CCC(C)CC1 [Compound 43, 1-(4-Bromo-2-fluorophenyl)-N-(3-fluoro-4-((6-methoxy-7-(3-(4-methylpiperidin-1-yl)propoxy)quinolin-4-yl)oxy)phenyl)-4-oxo-1,4-dihydropyridazine-3-carboxamide] | – | 0.03 ± 0.01 | 0.003 ± 0.001 | 0.005 ± 0.001 | 0.002 to 1.03 | 115.8 to 117.3 | 0.002 | –
COc1ccc(-n2ccc(=O)c(C(=O)Nc3ccc(Oc4ccnc5cc(OCCCN6CCN(C)CC6)c(OC)cc45)c(F)c3)n2)cc1 [Compound 49, 1-(4-((l1-Oxidanyl)-l5-methyl)phenyl)-N-(3-fluoro-4-((6-methoxy-7-(3-(4-methylpiperazin-1-yl)propoxy)quinolin-4-yl)oxy)phenyl)-4-oxo-1,4-dihydropyridazine-3-carboxamide] | – | 9.12 ± 0.96 | 3.68 ± 0.57 | 8.12 ± 0.91 | – | 167.5 to 169.1 | 0.078 | –
COc1cc2c(Oc3ccc(NC(=O)c4nn(-c5ccc(Cl)c(C(F)(F)F)c5)ccc4=O)cc3F)ccnc2cc1OCCCN1CCN(C)CC1 [Compound 52, 1-(4-Chloro-3-(trifluoromethyl)phenyl)-N-(3-fluoro-4-((6-methoxy-7-(3-(4-methylpiperazin-1-yl)propoxy)quinolin-4-yl)oxy)phenyl)-4-oxo-1,4-dihydropyridazine-3-carboxamide] | – | 0.04 ± 0.01 | 0.33 ± 0.03 | 0.15 ± 0.02 | 0.002 to 1.03 | 211.7 to 212.6 | 0.0008 | –
COc1cc2c(Oc3ccc(NC(=O)c4nn(-c5ccccc5)ccc4=O)cc3F)ccnc2cc1OCCCN1CCN(C)CC1 [Compound 53, N-(3-Fluoro-4-((6-methoxy-7-(3-(4-methylpiperazin-1-yl)propoxy)quinolin-4-yl)oxy)phenyl)-4-oxo-1-phenyl-1,4-dihydropyridazine-3-carboxamide] | – | 0.003 ± 0.001 | 0.49 ± 0.03 | 0.006 ± 0.001 | 0.002 to 1.03 | – | 0.0006 | significantly inhibited HepG2 cells proliferation and induced apoptosis; also recorded: could induce remarkable apoptosis of HepG2 cells

— paper PMC6099740, “Design, Synthesis and Biological Evaluation of 6,7-Disubstituted-4-phenoxyquinoline Derivatives Bearing Pyridazinone Moiety as c-Met Inhibitors” (Molecules : A Journal of Synthetic Chemistry and Natural …, 2018)
